The NIST ThermoML archive (doi:10.1021/acs.jced.7b00898)
Numbers after ± are expanded uncertainties.

Assay: xn = mol fraction of the nth substance listed
Conditions: 100 kPa, Liquid; for electrical conductivity: Alternating current cell with electrodes; for viscosity: Falling or rolling sphere viscometry; for mass density: Vibrating tube method

C[n+]1ccn(CCCC#N)c1.F[B-](F)(F)F [1-butyronitrile-3-methylimidazolium tetrafluoroborate] + CC#N
Conditions | electrical conductivity [S/m] | mass density [kg/m3] | viscosity [mPa·s]
288.15 K, x1 = 0.1004 | 3.71 ± 0.5 | 951.03 ± 1.9 | 1.783 ± 0.18
288.15 K, x1 = 0.2003 | 2.62 ± 0.41 | 1058.56 ± 2.1 | 5.545 ± 0.56
288.15 K, x1 = 0.3013 | 1.68 ± 0.31 | 1131.24 ± 2.3 | 13.17 ± 1.3
288.15 K, x1 = 0.3996 | 1.05 ± 0.24 | 1179.83 ± 2.4 | 30.38 ± 3.1
288.15 K, x1 = 0.4999 | 0.558 ± 0.17 | 1218.22 ± 2.5 | 72.81 ± 7.3
288.15 K, x1 = 0.5996 | 0.365 ± 0.14 | 1248.27 ± 2.5 | 105.8 ± 11
288.15 K, x1 = 0.7001 | 0.28 ± 0.12 | 1271.85 ± 2.6 | 150.9 ± 16
288.15 K, x1 = 0.8024 | 0.157 ± 0.093 | 1289.62 ± 2.6 | 287 ± 33
288.15 K, x1 = 0.8885 | 0.126 ± 0.083 | 1302.35 ± 2.6 | 372.8 ± 44
288.15 K, x1 = 1 | 0.058 ± 0.056 | 1316.07 ± 2.7 | 590.6 ± 74
293.15 K, x1 = 0.1004 | 3.98 ± 0.53 | 946.91 ± 1.9 | 1.645 ± 0.17
293.15 K, x1 = 0.2003 | 2.89 ± 0.43 | 1054.28 ± 2.1 | 4.901 ± 0.49
293.15 K, x1 = 0.3013 | 1.93 ± 0.34 | 1126.73 ± 2.3 | 11.15 ± 1.1
293.15 K, x1 = 0.3996 | 1.24 ± 0.26 | 1175.56 ± 2.4 | 24.74 ± 2.5
293.15 K, x1 = 0.4999 | 0.685 ± 0.19 | 1214.12 ± 2.4 | 56.55 ± 5.7
293.15 K, x1 = 0.5996 | 0.467 ± 0.16 | 1244.16 ± 2.5 | 80.64 ± 8.2
293.15 K, x1 = 0.7001 | 0.352 ± 0.14 | 1268.21 ± 2.6 | 113.9 ± 12
293.15 K, x1 = 0.8024 | 0.208 ± 0.11 | 1286.11 ± 2.6 | 207.7 ± 23
293.15 K, x1 = 0.8885 | 0.174 ± 0.098 | 1298.72 ± 2.6 | 266.5 ± 30
293.15 K, x1 = 1 | 0.085 ± 0.068 | 1312.33 ± 2.7 | 417.9 ± 50
298.15 K, x1 = 0.1004 | 4.28 ± 0.55 | 942.92 ± 1.9 | 1.52 ± 0.15
298.15 K, x1 = 0.2003 | 3.2 ± 0.46 | 1049.89 ± 2.1 | 4.361 ± 0.44
298.15 K, x1 = 0.3013 | 2.21 ± 0.37 | 1122.41 ± 2.2 | 9.572 ± 0.96
298.15 K, x1 = 0.3996 | 1.46 ± 0.29 | 1171.47 ± 2.4 | 20.18 ± 2
298.15 K, x1 = 0.4999 | 0.834 ± 0.21 | 1210.15 ± 2.4 | 45.13 ± 4.5
298.15 K, x1 = 0.5996 | 0.588 ± 0.18 | 1240.19 ± 2.5 | 62.96 ± 6.3
298.15 K, x1 = 0.7001 | 0.47 ± 0.16 | 1264.41 ± 2.5 | 87.6 ± 8.9
298.15 K, x1 = 0.8024 | 0.286 ± 0.12 | 1282.71 ± 2.6 | 154.3 ± 16
298.15 K, x1 = 0.8885 | 0.236 ± 0.11 | 1294.92 ± 2.6 | 195.6 ± 21
298.15 K, x1 = 1 | 0.123 ± 0.082 | 1308.61 ± 2.7 | 302.6 ± 35
303.15 K, x1 = 0.1004 | 4.56 ± 0.58 | 938.82 ± 1.9 | 1.412 ± 0.14
303.15 K, x1 = 0.2003 | 3.51 ± 0.49 | 1045.59 ± 2.1 | 3.908 ± 0.39
303.15 K, x1 = 0.3013 | 2.5 ± 0.4 | 1117.84 ± 2.2 | 8.303 ± 0.83
303.15 K, x1 = 0.3996 | 1.7 ± 0.32 | 1167.21 ± 2.3 | 16.91 ± 1.7
303.15 K, x1 = 0.4999 | 0.997 ± 0.23 | 1205.98 ± 2.4 | 36.59 ± 3.7
303.15 K, x1 = 0.5996 | 0.719 ± 0.2 | 1236.29 ± 2.5 | 50.09 ± 5
303.15 K, x1 = 0.7001 | 0.585 ± 0.18 | 1260.73 ± 2.5 | 68.7 ± 6.9
303.15 K, x1 = 0.8024 | 0.372 ± 0.14 | 1279.28 ± 2.6 | 117.1 ± 12
303.15 K, x1 = 0.8885 | 0.308 ± 0.13 | 1291.38 ± 2.6 | 147 ± 16
303.15 K, x1 = 1 | 0.171 ± 0.097 | 1304.81 ± 2.6 | 223.3 ± 25
308.15 K, x1 = 0.1004 | 4.84 ± 0.6 | 934.73 ± 1.9 | 1.315 ± 0.13
308.15 K, x1 = 0.2003 | 3.83 ± 0.51 | 1041.36 ± 2.1 | 3.529 ± 0.35
308.15 K, x1 = 0.3013 | 2.8 ± 0.42 | 1113.43 ± 2.2 | 7.266 ± 0.73
308.15 K, x1 = 0.3996 | 1.97 ± 0.34 | 1163.02 ± 2.3 | 14.47 ± 1.4
308.15 K, x1 = 0.4999 | 1.19 ± 0.26 | 1201.89 ± 2.4 | 30.15 ± 3
308.15 K, x1 = 0.5996 | 0.87 ± 0.22 | 1232.29 ± 2.5 | 40.62 ± 4.1
308.15 K, x1 = 0.7001 | 0.719 ± 0.2 | 1257.04 ± 2.5 | 54.9 ± 5.5
308.15 K, x1 = 0.8024 | 0.475 ± 0.16 | 1275.69 ± 2.6 | 90.99 ± 9.3
308.15 K, x1 = 0.8885 | 0.392 ± 0.15 | 1287.73 ± 2.6 | 112.9 ± 12
308.15 K, x1 = 1 | 0.231 ± 0.11 | 1301.05 ± 2.6 | 169.9 ± 18
313.15 K, x1 = 0.1004 | 5.13 ± 0.62 | 930.78 ± 1.9 | 1.228 ± 0.12
313.15 K, x1 = 0.2003 | 4.16 ± 0.54 | 1037.03 ± 2.1 | 3.204 ± 0.32
313.15 K, x1 = 0.3013 | 3.1 ± 0.45 | 1109.04 ± 2.2 | 6.436 ± 0.64
313.15 K, x1 = 0.3996 | 2.27 ± 0.37 | 1158.93 ± 2.3 | 12.49 ± 1.2
313.15 K, x1 = 0.4999 | 1.4 ± 0.28 | 1197.89 ± 2.4 | 25.23 ± 2.5
313.15 K, x1 = 0.5996 | 1.04 ± 0.24 | 1228.43 ± 2.5 | 33.47 ± 3.4
313.15 K, x1 = 0.7001 | 0.87 ± 0.22 | 1253.43 ± 2.5 | 44.63 ± 4.5
313.15 K, x1 = 0.8024 | 0.599 ± 0.18 | 1272.33 ± 2.6 | 71.79 ± 7.2
313.15 K, x1 = 0.8885 | 0.491 ± 0.16 | 1284.14 ± 2.6 | 88.12 ± 8.9
313.15 K, x1 = 1 | 0.305 ± 0.13 | 1297.32 ± 2.6 | 128.7 ± 13
318.15 K, x1 = 0.1004 | 5.41 ± 0.65 | 926.61 ± 1.9 | 1.153 ± 0.12
318.15 K, x1 = 0.2003 | 4.49 ± 0.57 | 1032.73 ± 2.1 | 2.936 ± 0.29
318.15 K, x1 = 0.3013 | 3.4 ± 0.48 | 1104.71 ± 2.2 | 5.741 ± 0.58
318.15 K, x1 = 0.3996 | 2.59 ± 0.4 | 1154.62 ± 2.3 | 10.85 ± 1.1
318.15 K, x1 = 0.4999 | 1.63 ± 0.31 | 1193.83 ± 2.4 | 21.38 ± 2.1
318.15 K, x1 = 0.5996 | 1.22 ± 0.26 | 1224.39 ± 2.5 | 28 ± 2.8
318.15 K, x1 = 0.7001 | 1.04 ± 0.24 | 1249.69 ± 2.5 | 36.82 ± 3.7
318.15 K, x1 = 0.8024 | 0.734 ± 0.2 | 1268.86 ± 2.6 | 57.48 ± 5.8
318.15 K, x1 = 0.8885 | 0.603 ± 0.18 | 1280.51 ± 2.6 | 70.08 ± 7
318.15 K, x1 = 1 | 0.393 ± 0.15 | 1293.59 ± 2.6 | 100.6 ± 10
323.15 K, x1 = 0.1004 | 5.69 ± 0.67 | 922.4 ± 1.9 | 1.084 ± 0.11
323.15 K, x1 = 0.2003 | 4.82 ± 0.6 | 1028.51 ± 2.1 | 2.695 ± 0.27
323.15 K, x1 = 0.3013 | 3.7 ± 0.5 | 1100.31 ± 2.2 | 5.152 ± 0.52
323.15 K, x1 = 0.3996 | 2.95 ± 0.44 | 1150.56 ± 2.3 | 9.38 ± 0.94
323.15 K, x1 = 0.4999 | 1.87 ± 0.33 | 1189.85 ± 2.4 | 17.96 ± 1.8
323.15 K, x1 = 0.5996 | 1.42 ± 0.28 | 1220.51 ± 2.5 | 23.76 ± 2.4
323.15 K, x1 = 0.7001 | 1.22 ± 0.26 | 1245.99 ± 2.5 | 30.77 ± 3.1
323.15 K, x1 = 0.8024 | 0.872 ± 0.22 | 1265.38 ± 2.5 | 47.05 ± 4.7
323.15 K, x1 = 0.8885 | 0.73 ± 0.2 | 1276.87 ± 2.6 | 56.76 ± 5.7
323.15 K, x1 = 1 | 0.498 ± 0.17 | 1289.86 ± 2.6 | 79.82 ± 8.1
